According to patent US20200396973A1, “PSORIASIS-INDUCED ANIMAL MODEL AND USE THEREOF” (CUROGEN TECHNOLOGY CO., LTD., priority 2016, published 2020):

System: Peli1 transgenic mice (rtTA-Peli1)
Protocol: Tissues of mice were fixed using 10% neutral buffered formalin to produce paraffin blocks. Sections having a thickness of 3 μm were obtained from the paraffin blocks, and then stained with hematoxylin & eosin (H&E). In the case of immunohistochemistry, staining was performed using an anti-K14 antibody, an anti-Ki67 antibody, an anti-CD31 antibody, and an anti-CD3 antibody, followed by mounting using a mounting medium containing a DAPI reagent. Images of the stained tissue samples were acquired using an AxioCam digital microscope camera and AxioVision image processing software (Carl Zeiss).

## CN(Cc1cnc2nc(N)nc(N)c2n1)c1ccc(C(=O)N[C@@H](CCC(=O)O)C(=O)O)cc1 [methotrexate]
rtTA-Peli1 mice with psoriasis phenotypes after doxycycline, intraperitoneal injection for a certain period, FIG. 8D
  thickness of the skin: about half of the thickness of the skin was reduced
rtTA-Peli1 mice, doxycycline 12 weeks, after administration of CsA or MTX, FIG. 8B
  increase in the thickness of the skin according to the proliferation of epidermal cells (H&E staining): still observed
rtTA-Peli1 mice, doxycycline 12 weeks, then CsA 6 times a week or MTX 4 times a week intraperitoneally, FIG. 8B
  phenotypes of parakeratosis, hyperkeratosis, rete ridge, and microabscess (skin layer structure, H&E staining): most of the phenotypes of parakeratosis, hyperkeratosis, rete ridge, and microabscess shown in the Peli1 transgenic mice (rtTA-Peli1) disappeared
rtTA-Peli1 mice, doxycycline 12 weeks, then intraperitoneal injection for a certain period, scoring per Table 1, FIG. 8C
  psoriasis phenotype score: reduced
